Assay results from the supplement of paper PMC10307832.

Columns and labels:
Assay in all cases: relative viability (nuclei count vs DMSO), 5 days (fraction); higher = more cells survive
NCI-H322M = tested on: NCI-H322M
Procedure, shortened: (§1)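 Lung cancer cell lines were seeded in 1536-well plates and dosed by pin tool the next day, with either a single drug or a fixed anchor-drug dose combined with five library-drug doses (not always all listed) spaced in √10 steps. Five days later, one step fixed the cells and stained their nuclei (final 0.05% Triton X-100, 1% formaldehyde, 1 ug/ml Hoechst), and nuclei were counted on 4× images. Relative viability is the nuclei count in treated wells divided by the count in vehicle wells, and each value is the median of duplicate plates.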

UMC-11 = tested on: UMC-11
Procedure, shortened: as §1

NCI-H1563 = tested on: NCI-H1563
Procedure, shortened: as §1

ABC-1 = tested on: ABC-1
Procedure, shortened: as §1

NCI-H1395 = tested on: NCI-H1395
Procedure, shortened: as §1

NCI-H1792 = tested on: NCI-H1792
Procedure, shortened: as §1

NCI-H2087 = tested on: NCI-H2087
Procedure, shortened: as §1

LCLC-103H = tested on: LCLC-103H
Procedure, shortened: as §1

LK-2 = tested on: LK-2
Procedure, shortened: as §1

A-427 = tested on: A-427
Procedure, shortened: as §1

NCI-H1666 = tested on: NCI-H1666
Procedure, shortened: as §1

PC-14 = tested on: PC-14
Procedure, shortened: as §1

NCI-H23 = tested on: NCI-H23
Procedure, shortened: as §1

NCI-H1651 = tested on: NCI-H1651
Procedure, shortened: as §1

H3255 = tested on: H3255
Procedure, shortened: as §1

CAL-12T = tested on: CAL-12T
Procedure, shortened: as §1

NCI-H838 = tested on: NCI-H838
Procedure, shortened: as §1

NCI-H661 = tested on: NCI-H661
Procedure, shortened: as §1

NCI-H2228 = tested on: NCI-H2228
Procedure, shortened: as §1

NCI-H2085 = tested on: NCI-H2085
Procedure, shortened: as §1

NCI-H358 = tested on: NCI-H358
Procedure, shortened: as §1

NCI-H1355 = tested on: NCI-H1355
Procedure, shortened: as §1

With `COCC1(CO)C(=O)C2CCN1CC2` (stereo not drawn) [PRIMA-1MET] + CCNC(=O)c1noc(-c2cc(C(C)C)c(O)cc2O)c1-c1ccc(CN2CCOCC2)cc1 [Luminespib] (partner 0.01 µM) the relative viability (NCI-H322M; first compound 0.2 µM) was 0.974, the relative viability (NCI-H322M; first compound 0.6325 µM) was 0.809 and the relative viability (NCI-H322M; first compound 6.325 µM) was 0.958. It also gave a relative viability (NCI-H322M; first compound 20 µM) of 0.556, a relative viability (UMC-11; first compound 0.2 µM) of 1.06 and a relative viability (UMC-11; first compound 0.6325 µM) of 0.818. The relative viability (UMC-11; first compound 2 µM) was 0.978, the relative viability (UMC-11; first compound 6.325 µM) was 0.988 and the relative viability (UMC-11; first compound 20 µM) was 0.917. It also gave a relative viability (NCI-H1563; first compound 0.2 µM) of 0.595, a relative viability (NCI-H1563; first compound 0.6325 µM) of 0.539 and a relative viability (NCI-H1563; first compound 6.325 µM) of 0.529. It also gave a relative viability (NCI-H1563; first compound 20 µM) of 0.147, a relative viability (ABC-1; first compound 0.2 µM) of 0.534 and a relative viability (ABC-1; first compound 0.6325 µM) of 0.375. For the same compound, the relative viability (ABC-1; first compound 2 µM) was 0.393, the relative viability (ABC-1; first compound 6.325 µM) was 0.607 and the relative viability (ABC-1; first compound 20 µM) was 0.171. It also gave a relative viability (NCI-H1395; first compound 0.2 µM) of 0.845, a relative viability (NCI-H1395; first compound 0.6325 µM) of 0.676 and a relative viability (NCI-H1395; first compound 2 µM) of 0.677. The relative viability (NCI-H1395; first compound 6.325 µM) was 0.603, the relative viability (NCI-H1395; first compound 20 µM) was 0.406 and the relative viability (NCI-H1792; first compound 0.2 µM) was 0.533. The relative viability (NCI-H1792; first compound 0.6325 µM) was 0.491, the relative viability (NCI-H1792; first compound 2 µM) was 0.394 and the relative viability (NCI-H1792; first compound 6.325 µM) was 0.466. For the same compound, the relative viability (NCI-H1792; first compound 20 µM) was 0.45, the relative viability (NCI-H2087; first compound 0.2 µM) was 0.167 and the relative viability (NCI-H2087; first compound 0.6325 µM) was 0.17. For the same compound, the relative viability (NCI-H2087; first compound 2 µM) was 0.153, the relative viability (NCI-H2087; first compound 6.325 µM) was 0.181 and the relative viability (NCI-H2087; first compound 20 µM) was 0.0951. For the same compound, the relative viability (LCLC-103H; first compound 0.2 µM) was 1.05, the relative viability (LCLC-103H; first compound 0.6325 µM) was 0.831 and the relative viability (LCLC-103H; first compound 2 µM) was 0.892. For the same compound, the relative viability (LCLC-103H; first compound 6.325 µM) was 0.985, the relative viability (LCLC-103H; first compound 20 µM) was 0.307 and the relative viability (LK-2; first compound 0.2 µM) was 0.152. For the same compound, the relative viability (LK-2; first compound 0.6325 µM) was 0.188, the relative viability (LK-2; first compound 2 µM) was 0.158 and the relative viability (LK-2; first compound 6.325 µM) was 0.167. It also gave a relative viability (LK-2; first compound 20 µM) of 0.121, a relative viability (A-427; first compound 0.2 µM) of 1.19 and a relative viability (A-427; first compound 0.6325 µM) of 0.717. The relative viability (A-427; first compound 2 µM) was 0.714, the relative viability (A-427; first compound 6.325 µM) was 0.763 and the relative viability (A-427; first compound 20 µM) was 0.58. For the same compound, the relative viability (NCI-H1666; first compound 0.2 µM) was 1.02, the relative viability (NCI-H1666; first compound 0.6325 µM) was 0.714 and the relative viability (NCI-H1666; first compound 2 µM) was 0.906. The relative viability (NCI-H1666; first compound 6.325 µM) was 1.03, the relative viability (NCI-H1666; first compound 20 µM) was 0.85 and the relative viability (PC-14; first compound 0.2 µM) was 0.137. For the same compound, the relative viability (PC-14; first compound 0.6325 µM) was 0.176, the relative viability (PC-14; first compound 2 µM) was 0.169 and the relative viability (PC-14; first compound 6.325 µM) was 0.182. The relative viability (PC-14; first compound 20 µM) was 0.129, the relative viability (NCI-H23; first compound 0.2 µM) was 0.24 and the relative viability (NCI-H23; first compound 0.6325 µM) was 0.234. It also gave a relative viability (NCI-H23; first compound 2 µM) of 0.22, a relative viability (NCI-H23; first compound 6.325 µM) of 0.209 and a relative viability (NCI-H23; first compound 20 µM) of 0.0464. The relative viability (NCI-H1651; first compound 0.2 µM) was 0.99, the relative viability (NCI-H1651; first compound 0.6325 µM) was 0.704 and the relative viability (NCI-H1651; first compound 2 µM) was 0.66. It also gave a relative viability (NCI-H1651; first compound 6.325 µM) of 1.06, a relative viability (NCI-H1651; first compound 20 µM) of 0.824 and a relative viability (H3255; first compound 0.2 µM) of 0.933. For the same compound, the relative viability (H3255; first compound 0.6325 µM) was 0.813, the relative viability (H3255; first compound 2 µM) was 0.741 and the relative viability (H3255; first compound 6.325 µM) was 0.868. For the same compound, the relative viability (H3255; first compound 20 µM) was 0.91, the relative viability (CAL-12T; first compound 0.2 µM) was 0.363 and the relative viability (CAL-12T; first compound 0.6325 µM) was 0.383. The relative viability (CAL-12T; first compound 2 µM) was 0.547, the relative viability (CAL-12T; first compound 6.325 µM) was 0.918 and the relative viability (CAL-12T; first compound 20 µM) was 0.166. For the same compound, the relative viability (NCI-H838; first compound 0.2 µM) was 0.315, the relative viability (NCI-H838; first compound 0.6325 µM) was 0.194 and the relative viability (NCI-H838; first compound 2 µM) was 0.298. It also gave a relative viability (NCI-H838; first compound 6.325 µM) of 0.284, a relative viability (NCI-H838; first compound 20 µM) of 0.189 and a relative viability (NCI-H661; first compound 0.2 µM) of 1.02. The relative viability (NCI-H661; first compound 0.6325 µM) was 0.886, the relative viability (NCI-H661; first compound 2 µM) was 0.965 and the relative viability (NCI-H661; first compound 6.325 µM) was 0.929. It also gave a relative viability (NCI-H661; first compound 20 µM) of 0.886, a relative viability (NCI-H2228; first compound 0.2 µM) of 0.212 and a relative viability (NCI-H2228; first compound 0.6325 µM) of 0.139. The relative viability (NCI-H2228; first compound 2 µM) was 0.0997, the relative viability (NCI-H2228; first compound 6.325 µM) was 0.192 and the relative viability (NCI-H2228; first compound 20 µM) was 0.056. It also gave a relative viability (NCI-H2085; first compound 0.2 µM) of 0.55, a relative viability (NCI-H2085; first compound 0.6325 µM) of 0.44 and a relative viability (NCI-H2085; first compound 2 µM) of 0.3. It also gave a relative viability (NCI-H2085; first compound 6.325 µM) of 0.42, a relative viability (NCI-H2085; first compound 20 µM) of 0.267 and a relative viability (NCI-H358; first compound 0.2 µM) of 0.314. For the same compound, the relative viability (NCI-H358; first compound 0.6325 µM) was 0.312, the relative viability (NCI-H358; first compound 2 µM) was 0.354 and the relative viability (NCI-H358; first compound 6.325 µM) was 0.416. It also gave a relative viability (NCI-H358; first compound 20 µM) of 0.287, a relative viability (NCI-H1355; first compound 0.2 µM) of 0.859 and a relative viability (NCI-H1355; first compound 0.6325 µM) of 0.556. For the same compound, the relative viability (NCI-H1355; first compound 2 µM) was 0.695, the relative viability (NCI-H1355; first compound 6.325 µM) was 0.734 and the relative viability (NCI-H1355; first compound 20 µM) was 0.673.
